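Following 48 hours of exposure in 96-well plates, responses at five concentrations were used to interpolate endpoints linearly. At the GI50, growth is halved. At the TGI there is no net growth.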 Activity calls are given as the source filed them. Cut-off read from the data, not from the text of the source: active = GI50 below about 0.43 µM; inactive = the rest.
What was measured:
Experiment in all cases: DTP human tumour cell line panel, 48 h
A498 renal = test system: A498 renal
CAKI-1 renal = test system: CAKI-1 renal
DU-145 prostate = test system: DU-145 prostate
K-562 leukemia = test system: K-562 leukemia
KM12 colon = test system: KM12 colon
RPMI-8226 leukemia = test system: RPMI-8226 leukemia
RXF 393 renal = test system: RXF 393 renal
SNB-19 CNS = test system: SNB-19 CNS

O=C(O)CCNC1CCCCC1
> 100 µM: TGI (A498 renal) | TGI (CAKI-1 renal) | TGI (DU-145 prostate) | TGI (K-562 leukemia) | TGI (KM12 colon) | TGI (RPMI-8226 leukemia) | TGI (RXF 393 renal) | TGI (SNB-19 CNS)
inactive: GI50 (A498 renal) > 100 µM | GI50 (CAKI-1 renal) > 100 µM | GI50 (DU-145 prostate) > 100 µM | GI50 (K-562 leukemia) > 100 µM | GI50 (KM12 colon) > 100 µM | GI50 (RPMI-8226 leukemia) > 100 µM | GI50 (RXF 393 renal) > 100 µM | GI50 (SNB-19 CNS) > 100 µM

Cc1ccc2c(c1)Sc1c(ccc3ccccc13)N2
> 100 µM: TGI (A498 renal) | TGI (CAKI-1 renal) | TGI (DU-145 prostate) | TGI (K-562 leukemia) | TGI (KM12 colon) | TGI (RPMI-8226 leukemia) | TGI (RXF 393 renal) | TGI (SNB-19 CNS)
inactive: GI50 (A498 renal) 83.9 µM | GI50 (CAKI-1 renal) 15.3 µM | GI50 (DU-145 prostate) > 100 µM | GI50 (K-562 leukemia) 11.2 µM | GI50 (KM12 colon) 48.7 µM | GI50 (RPMI-8226 leukemia) 13.4 µM | GI50 (RXF 393 renal) > 100 µM | GI50 (SNB-19 CNS) > 100 µM

O=C(CCc1nnc2sc(-c3ccc(Cl)cc3Cl)nn12)c1nc2ccccc2[nH]1
inactive: GI50 (A498 renal) 0.845 µM | GI50 (CAKI-1 renal) 2.22 µM | GI50 (DU-145 prostate) 1.15 µM | GI50 (K-562 leukemia) 0.451 µM | GI50 (KM12 colon) 1.25 µM | GI50 (SNB-19 CNS) 1.41 µM
2.26 µM: TGI (A498 renal)
2.86 µM: TGI (KM12 colon)
5.8 µM: TGI (SNB-19 CNS)
5.45 µM: TGI (CAKI-1 renal)
active: GI50 (RPMI-8226 leukemia) 0.422 µM | GI50 (RXF 393 renal) 0.394 µM
2.38 µM: TGI (DU-145 prostate)
2.63 µM: TGI (RPMI-8226 leukemia)
1.04 µM: TGI (RXF 393 renal)
2.56 µM: TGI (K-562 leukemia)

CC1CN1C(=O)NCCCCCCNC(=O)N1CC1C (stereo not given)
> 100 µM: TGI (A498 renal) | TGI (CAKI-1 renal) | TGI (DU-145 prostate) | TGI (K-562 leukemia) | TGI (KM12 colon) | TGI (RPMI-8226 leukemia) | TGI (RXF 393 renal) | TGI (SNB-19 CNS)

CCCCCCCC[C@@H](O)CC(=O)N[C@@H](CC(N)=O)C(=O)N[C@@H](CCC(N)=O)C(=O)N[C@@H](CC(=O)c1cc(C)cc(O)c1C(=O)c1c(O)cccc1O)CC(C)C
inactive: GI50 (A498 renal) 2.29 µM | GI50 (CAKI-1 renal) 1.51 µM | GI50 (DU-145 prostate) 1.14 µM | GI50 (KM12 colon) 0.971 µM
0.713 µM: TGI (RXF 393 renal)
active: GI50 (K-562 leukemia) 0.408 µM | GI50 (RPMI-8226 leukemia) 0.0926 µM | GI50 (RXF 393 renal) 0.214 µM | GI50 (SNB-19 CNS) 0.244 µM
7.44 µM: TGI (A498 renal)
> 100 µM: TGI (CAKI-1 renal) | TGI (K-562 leukemia) | TGI (SNB-19 CNS)
0.883 µM: TGI (RPMI-8226 leukemia)
3.3 µM: TGI (KM12 colon)
18.3 µM: TGI (DU-145 prostate)

O=C(O)c1nn(-c2ccccc2-c2n[nH]c(=O)[nH]c2=O)c(=O)[nH]c1=O
> 100 µM: TGI (A498 renal) | TGI (CAKI-1 renal) | TGI (DU-145 prostate) | TGI (K-562 leukemia) | TGI (KM12 colon) | TGI (RPMI-8226 leukemia) | TGI (RXF 393 renal) | TGI (SNB-19 CNS)

Cc1ccc(C(=O)NC(C)C)cc1-c1ccc(C(=O)NCC2CC2)cc1
inactive: GI50 (A498 renal) > 25 µM | GI50 (CAKI-1 renal) > 25 µM | GI50 (DU-145 prostate) > 25 µM | GI50 (K-562 leukemia) > 25 µM | GI50 (KM12 colon) > 25 µM | GI50 (RPMI-8226 leukemia) > 25 µM | GI50 (RXF 393 renal) > 25 µM | GI50 (SNB-19 CNS) > 25 µM
> 25 µM: TGI (A498 renal) | TGI (CAKI-1 renal) | TGI (DU-145 prostate) | TGI (K-562 leukemia) | TGI (KM12 colon) | TGI (RPMI-8226 leukemia) | TGI (RXF 393 renal) | TGI (SNB-19 CNS)

Nc1nccc(-c2c(-c3ccc(F)cc3)ncn2C2CCC(O)CC2)n1 (stereo not given)
> 23.8 µM: TGI (RXF 393 renal)
> 25 µM: TGI (A498 renal) | TGI (CAKI-1 renal) | TGI (DU-145 prostate) | TGI (K-562 leukemia) | TGI (KM12 colon) | TGI (RPMI-8226 leukemia) | TGI (SNB-19 CNS)
inactive: GI50 (A498 renal) 3.29 µM | GI50 (CAKI-1 renal) 7.13 µM | GI50 (DU-145 prostate) 11.2 µM | GI50 (K-562 leukemia) 11.9 µM | GI50 (KM12 colon) 7.82 µM | GI50 (RPMI-8226 leukemia) 11.7 µM | GI50 (RXF 393 renal) 4.77 µM | GI50 (SNB-19 CNS) 15.6 µM

CCOC(=S)SSSC(=S)OCC
61.1 µM: TGI (RPMI-8226 leukemia)
> 100 µM: TGI (A498 renal) | TGI (CAKI-1 renal) | TGI (DU-145 prostate) | TGI (K-562 leukemia) | TGI (KM12 colon) | TGI (RXF 393 renal) | TGI (SNB-19 CNS)

CS(=O)(=O)c1ccc(-n2nc(C(F)(F)F)cc2OC2CCCC2)cc1
92.6 µM: TGI (K-562 leukemia)
inactive: GI50 (A498 renal) 25.2 µM | GI50 (CAKI-1 renal) 21.1 µM | GI50 (DU-145 prostate) 38.9 µM | GI50 (K-562 leukemia) 29.1 µM | GI50 (KM12 colon) 38.5 µM | GI50 (RPMI-8226 leukemia) 34.8 µM | GI50 (RXF 393 renal) 94.3 µM | GI50 (SNB-19 CNS) 48.7 µM
> 100 µM: TGI (DU-145 prostate) | TGI (KM12 colon) | TGI (RPMI-8226 leukemia) | TGI (RXF 393 renal) | TGI (SNB-19 CNS)
54.4 µM: TGI (CAKI-1 renal)
56.2 µM: TGI (A498 renal)

NC(=O)NS(=O)(=O)c1ccc(N2N=C(C(F)(F)F)CC2c2cc(C(F)(F)F)cc(C(F)(F)F)c2)cc1 (stereo not given)
5.77 µM: TGI (RXF 393 renal)
3.74 µM: TGI (RPMI-8226 leukemia)
19.5 µM: TGI (CAKI-1 renal)
inactive: GI50 (A498 renal) 2.24 µM | GI50 (CAKI-1 renal) 5 µM | GI50 (DU-145 prostate) 3.54 µM | GI50 (K-562 leukemia) 4.98 µM | GI50 (KM12 colon) 1.83 µM | GI50 (RPMI-8226 leukemia) 1.38 µM | GI50 (RXF 393 renal) 2.86 µM | GI50 (SNB-19 CNS) 8.03 µM
8.15 µM: TGI (A498 renal)
> 100 µM: TGI (K-562 leukemia)
22.4 µM: TGI (SNB-19 CNS)
4.65 µM: TGI (KM12 colon)
15.1 µM: TGI (DU-145 prostate)

COc1ccc(C(=O)C#Cc2cnc(OC)nc2OC)cc1
24.7 µM: TGI (SNB-19 CNS)
4.86 µM: TGI (DU-145 prostate)
5.2 µM: TGI (RPMI-8226 leukemia)
inactive: outcome (A498 renal) | GI50 (CAKI-1 renal) 25300 µM | outcome (DU-145 prostate) | GI50 (K-562 leukemia) 12100 µM | GI50 (KM12 colon) 56100 µM | GI50 (RPMI-8226 leukemia) 40100 µM | GI50 (RXF 393 renal) 26800 µM | outcome (SNB-19 CNS)
35.1 µM: TGI (A498 renal)
11.6 µM: TGI (KM12 colon)

Source: PubChem BioAssay (NCI)
